Data on 21 compounds can be found in US5262521A (SRI International, priority 1991, dated 1993).

The experiment concerns atrial peptide-degrading enzyme (ADE). As to the kind of experiment: Inhibition of ADE activity (AcAPI production from 50 μM AcAPII, HPLC). The format is biochemical, bovine. As to the method:
The concentration of enzyme and AcAPII were chosen so that approximately 80% of the AcAPII was degraded in the absence of inhibitor. The production of AcAPI was determined by integration of the AcI peak, and percent inhibition by the inhibitors was calculated.
(e.) Enzyme Inhibitor Testing: To further characterize ADE, the extent of inhibition by several known peptidase inhibitors was determined.

Setting [1] is: inhibitor 0.1 mM, 50 μM AcAPII, 1 hour, 37° C.
[2] abbreviates: inhibitor 1 mM, 50 μM AcAPII, 1 hour, 37° C.
Where [3] appears, read: inhibitor 5 mM, 50 μM AcAPII, 1 hour, 37° C.

Like-named read-outs stand apart in the source and are kept apart here. *1 amine or outer side, *2 acyl side, *3 side chain or, on linkers, in order; H or OH if unused. Where a SMILES comes first, the peptide text is derived from it. [ ]: non-standard residue; d: D form. The star is where a group is joined. Sta = CC(C)C[C@H](N)[C@@H](O)CC(=O)O; Isovaleryl = CC(C)CC(=O)*; CO = O=C([*:1])[*:2]

With `CC(C)C[C@H](NC(=O)[C@H]1O[C@@H]1C(=O)O)C(=O)NCCCCN=C(N)N` (relative stereo) [E64, trans-Epoxysuccinyl-L-leucylamido-(4-guanidino)butane], the “Percent Inhibition of ADE” value under setting [1] is 0%.

On to `c1cnc2c(c1)ccc1cccnc12` [1,10-Phenanthroline], for which the “Inhibition of ADE, in words” value is reported as “inhibited activity to a slightly lesser extent”. Besides, the “Percent Inhibition of ADE” value under setting [2] is given as 72%.

On to `CC(C)C[C@H](NC(=O)[C@@H](N)CO)C(=O)N[C@@H](CCCNC(=N)N)C(=O)N[C@@H](CCCNC(=N)N)C(=O)N[C@@H](CO)C(=O)N[C@@H](CO)C(=O)N[C@H](C)C(=O)NCC(=O)N[C@H](C)C(=O)N[C@@H](CC(N)=O)C(=O)N[C@@H](CO)C(=O)N[C@@H](Cc1ccccc1)C(=O)N[C@@H](CCCNC(=N)N)C(=O)N[C@@H](Cc1ccc(O)cc1)C(N)=O` [(I), Ser-Leu-Arg-Arg-Ser-Ser-DAla-Gly-DAla-Asn-Ser-Phe-Arg-Tyr-NH2] (H-SLRRSS[dA]G[dA]NSFRY-NH2), for which, under “Table 10”, the “% Inhibition At 0.1 mM” value was 46%.

Consider `CC(C)C[C@H](NC(=O)[C@@H](N)CO)C(=O)N[C@@H](CCCNC(=N)N)C(=O)N[C@@H](CCCNC(=N)N)C(=O)N[C@@H](CO)C(=O)N[C@@H](CO)C(=O)N[C@H](C)C(=O)NCC(=O)N[C@H](C)C(=O)N[C@@H](CC(N)=O)C(=O)N[C@@H](CO)C(=O)N[C@H](Cc1ccccc1)C(=O)N[C@@H](CCCNC(=N)N)C(=O)N[C@@H](Cc1ccc(O)cc1)C(N)=O` [(II), Ser-Leu-Arg-Arg-Ser-Ser-DAla-Gly-DAla-Asn-Ser-DPhe-Arg-Tyr-NH2] (H-SLRRSS[dA]G[dA]NS[dF]RY-NH2), for which the “% Inhibition At 0.1 mM” value (Table 10) came out at 28%.

For `CC(C)C[C@H](NC(=O)[C@@H](N)CO)C(=O)N[C@@H](CCCNC(=N)N)C(=O)N[C@@H](CCCNC(=N)N)C(=O)N[C@@H](CO)C(=O)N[C@@H](CO)C(=O)N[C@H](C)C(=O)NCC(=O)N[C@H](C)C(=O)N[C@@H](CC(N)=O)C(=O)N[C@H](CO)C(=O)N[C@@H](Cc1ccccc1)C(=O)N[C@@H](CCCNC(=N)N)C(=O)N[C@@H](Cc1ccc(O)cc1)C(N)=O` [(III), Ser-Leu-Arg-Arg-Ser-Ser-DAla-Gly-DAla-Asn-DSer-Phe-Arg-Tyr-NH2] (H-SLRRSS[dA]G[dA]N[dS]FRY-NH2), the “% Inhibition At 0.1 mM” value (Table 10) came out at 22%.

What is called IC50 is the concentration that gives 50% inhibition. The low end stands for inhibition by little substance, the high end for a need for much substance. For `CC(C)C[C@H](NC(=O)[C@@H](N)CO)C(=O)N[C@@H](CCCNC(=N)N)C(=O)N[C@@H](CCCNC(=N)N)C(=O)N[C@@H](CO)C(=O)N[C@@H](CO)C(=O)N[C@H](C)C(=O)NCC(=O)N[C@H](C)C(=O)N[C@@H](CC(N)=O)C(=O)N[C@@H](CS)C(=O)N[C@@H](Cc1ccccc1)C(=O)N[C@@H](CCCNC(=N)N)C(=O)N[C@@H](Cc1ccc(O)cc1)C(N)=O` [(IV), Ser-Leu-Arg-Arg-Ser-Ser-DAla-Gly-DAla-Asn-Cys-Phe-Arg-Tyr-NH2] (H-SLRRSS[dA]G[dA]NCFRY-NH2), where the note is “Table 10”, the IC50 was found to be 32.5 µM and the “% Inhibition At 0.1 mM” value was determined as 68%.

Turning to `CC(C)C[C@H](NC(=O)[C@@H](N)CO)C(=O)N[C@@H](CCCNC(=N)N)C(=O)N[C@@H](CCCNC(=N)N)C(=O)N[C@@H](CO)C(=O)N[C@@H](CO)C(=O)N[C@H](C)C(=O)NCC(=O)N[C@H](C)C(=O)N[C@@H](CC(N)=O)C(=O)N[C@@H](CS)C(=O)N[C@H](Cc1ccccc1)C(=O)N[C@@H](CCCNC(=N)N)C(N)=O` [(VI), Ser-Leu-Arg-Arg-Ser-Ser-DAla-Gly-DAla-Asn-Cys-DPhe-Arg-NH2] (H-SLRRSS[dA]G[dA]NC[dF]R-NH2), the “% Inhibition At 0.1 mM” value (Table 10) is 74%.

Take `CC(C)[C@H](NC(=O)[C@H](CCCNC(=N)N)NC(=O)N[C@@H](Cc1ccccc1)C(=O)O)C(=O)N[C@H](C=O)CCCNC(=N)N` [Antipain] ({Phe-CO}-Arg-Val-Arg-aldehyde): the “Percent Inhibition of ADE” value under setting [1] is 0%.

On to `C[C@H](CS)C(=O)N1CCC[C@H]1C(=O)O` [Captopril], for which the “Inhibition of ADE, in words” value is given as “slight inhibition”. Moreover, the “Percent Inhibition of ADE” value (inhibitor 0.2 mM, 50 μM AcAPII, 1 hour, 37° C.) was determined as 33%.

For the compound `CC(C)C[C@H](NC(=O)[C@@H](NC(=O)N[C@@H](Cc1ccccc1)C(=O)O)[C@@H]1CCN=C(N)N1)C(=O)N[C@H](C=O)Cc1ccccc1` [Chymostatin], the “Percent Inhibition of ADE” value under setting [1] worked out at 8%.

As to `O=C(O)CN(CCN(CC(=O)O)CC(=O)O)CC(=O)O` [EDTA, Ethylenediamine tetraacetic acid], the “ADE activity after dialysis of the enzyme” value (enzyme dialyzed against 1 mM EDTA) is reported as “totally abolished”. The “Percent Inhibition of ADE” value under setting [3] turned out to be 20%.

For `CC(C)C[C@H](NC(=O)N[C@H](C(=O)N[C@@H](CCC(N)=O)C(=O)N[C@@H](C)C=O)[C@@H]1CCNC(=N)N1)C(=O)O` [Elastinal], under setting [1], the “Percent Inhibition of ADE” value is given as 10%.

For the compound `O=S(=O)(O)c1cc[c]([Hg][OH])cc1` [Hydroxymercuriphenyl sulfonic acid], the “Percent Inhibition of ADE” value under setting [2] turned out to be 100%.

On to `NC(=O)CI` [Iodoacetamide], for which the “Percent Inhibition of ADE” value under setting [2] was determined as 10%.

For `O=C(O)CI` [Iodoacetic acid], the “Percent Inhibition of ADE” value stood at 0.

In the case of `CC(=O)N[C@@H](CC(C)C)C(=O)N[C@@H](CC(C)C)C(=O)N[C@H](C=O)CCCNC(=N)N` [Leupeptine], the “Inhibition of ADE, in words” value is recorded as “slight inhibition”. In addition, the “Percent Inhibition of ADE” value under setting [1] came to 33%.

`CCN1C(=O)C=CC1=O` [NEM, N-ethylmaleimide]: the “Inhibition of ADE, in words” value was “inhibited”. Besides, the “Percent Inhibition of ADE” value under setting [3] is reported as 97%. The “ADE activity inhibited by” value (text summary of Table 4) is given as approximately 100%.

As for `O=S(=O)(F)Cc1ccccc1` [PMSF, Phenylmethylsulfonyl fluoride], the “Percent Inhibition of ADE” value under setting [2] was found to be 8%.

With `CC(C)CC(=O)N[C@H](C(=O)N[C@H](C(=O)N[C@@H](CC(C)C)[C@@H](O)CC(=O)N[C@@H](C)C(=O)N[C@@H](CC(C)C)[C@@H](O)CC(=O)O)C(C)C)C(C)C` [Pepstatin] (Isovaleryl-VV[Sta]A[Sta]-OH), the “Percent Inhibition of ADE” value (inhibitor 0.01 mM, 50 μM AcAPII, 1 hour, 37° C.) is on record as 0%.

On to `CC(C)C[C@H](NP(=O)(O)O[C@@H]1O[C@@H](C)[C@H](O)[C@@H](O)[C@H]1O)C(=O)N[C@@H](Cc1c[nH]c2ccccc12)C(=O)O` [Phosphoramidon], for which the “Inhibition of ADE, in words” value is “not inhibited”. Besides, the “Percent Inhibition of ADE” value (inhibitor 0.001 mM, 50 μM AcAPII, 1 hour, 37° C.) came to 0%.

In the case of `O=C(O)c1cc[c]([Hg][Cl])cc1` [p-Chloromercuribenzoate], the “Percent Inhibition of ADE” value under setting [2] is 95%.
